In patent US20230373939A1 (VERTEX PHARMACEUTICALS INCORPORATED, priority 2020, published 2023):
Like-named read-outs stand apart in the source and are kept apart here.

Target: T1, F508del in NIH 3T3 cells (Homo sapiens, UniProt P13569, DEL508-508)
T1 construct: expressed in transfected cells
Experiment: 3T3 assay: membrane potential optical assay for F508del correction
Format: cell-based
Conditions: for EC50: read-out: 3T3 EC50
From the text: 1. Membrane Potential Optical Methods for Assaying F508del Modulation Properties of Compounds
The assay utilizes fluorescent voltage sensing dyes to measure changes in membrane potential using a fluorescent plate reader (e.g., FLTPR III, Molecular Devices, Inc.) as a readout for increase in functional F508del in NIH 3T3 cells. The driving force for the response is the creation of a chloride ion gradient in conjunction with channel activation by a single liquid addition step after the cells have previously been treated with compounds and subsequently loaded with a voltage sensing dye.
2. Identification of Corrector Compounds
To identify correctors of F508del, a single-addition HTS assay format was developed. This HTS assay utilizes fluorescent voltage sensing dyes to measure changes in membrane potential on the FLIPR III as a measurement for increase in gating (conductance) of F508del in F508del NUT 3T3 cells. The F508del NUT 3T3 cell cultures were incubated with the corrector compounds at a range of concentrations for 18-24 hours at 37° C., and subsequently loaded with a redistribution dye. The driving force for the response is a Cl^− ion gradient in conjunction with channel activation with forskolin in a single liquid addition step using a fluorescent plate reader such as FLIPR III.
Bath Solution #1: (in mM) NaCl 160, KCl 4.5, CaCl2 2, MgCl2 1, HEPES 10, pH 7.4 with NaOH.
Chloride-free bath solution: Chloride salts in Bath Solution #1 (above) are substituted with gluconate salts.
NIH3T3 mouse fibroblasts stably expressing F508del were used for optical measurements of membrane potential. The cells were maintained at 37° C. in 5% CO2 and 90% humidity in Dulbecco's modified Eagle's medium supplemented with 2 mM glutamine, 10% fetal bovine serum, 1×NEAA, b-ME, 1×pen/strep, and 25 mM HEPES in 175 cm^2 culture flasks. For all optical assays, the cells were seeded at ˜20,000/well in 384-well Matrigel-coated plates. For the correction assays, the cells were cultured at 37° C. with and without compounds for 16-24 hours.

[1] = NIH3T3, NIH 3T3 cells, F508del, read-out: 3T3 Max Activity (%)

T1 sequence (P13569 with tags, fused parts or gaps DEL508-508): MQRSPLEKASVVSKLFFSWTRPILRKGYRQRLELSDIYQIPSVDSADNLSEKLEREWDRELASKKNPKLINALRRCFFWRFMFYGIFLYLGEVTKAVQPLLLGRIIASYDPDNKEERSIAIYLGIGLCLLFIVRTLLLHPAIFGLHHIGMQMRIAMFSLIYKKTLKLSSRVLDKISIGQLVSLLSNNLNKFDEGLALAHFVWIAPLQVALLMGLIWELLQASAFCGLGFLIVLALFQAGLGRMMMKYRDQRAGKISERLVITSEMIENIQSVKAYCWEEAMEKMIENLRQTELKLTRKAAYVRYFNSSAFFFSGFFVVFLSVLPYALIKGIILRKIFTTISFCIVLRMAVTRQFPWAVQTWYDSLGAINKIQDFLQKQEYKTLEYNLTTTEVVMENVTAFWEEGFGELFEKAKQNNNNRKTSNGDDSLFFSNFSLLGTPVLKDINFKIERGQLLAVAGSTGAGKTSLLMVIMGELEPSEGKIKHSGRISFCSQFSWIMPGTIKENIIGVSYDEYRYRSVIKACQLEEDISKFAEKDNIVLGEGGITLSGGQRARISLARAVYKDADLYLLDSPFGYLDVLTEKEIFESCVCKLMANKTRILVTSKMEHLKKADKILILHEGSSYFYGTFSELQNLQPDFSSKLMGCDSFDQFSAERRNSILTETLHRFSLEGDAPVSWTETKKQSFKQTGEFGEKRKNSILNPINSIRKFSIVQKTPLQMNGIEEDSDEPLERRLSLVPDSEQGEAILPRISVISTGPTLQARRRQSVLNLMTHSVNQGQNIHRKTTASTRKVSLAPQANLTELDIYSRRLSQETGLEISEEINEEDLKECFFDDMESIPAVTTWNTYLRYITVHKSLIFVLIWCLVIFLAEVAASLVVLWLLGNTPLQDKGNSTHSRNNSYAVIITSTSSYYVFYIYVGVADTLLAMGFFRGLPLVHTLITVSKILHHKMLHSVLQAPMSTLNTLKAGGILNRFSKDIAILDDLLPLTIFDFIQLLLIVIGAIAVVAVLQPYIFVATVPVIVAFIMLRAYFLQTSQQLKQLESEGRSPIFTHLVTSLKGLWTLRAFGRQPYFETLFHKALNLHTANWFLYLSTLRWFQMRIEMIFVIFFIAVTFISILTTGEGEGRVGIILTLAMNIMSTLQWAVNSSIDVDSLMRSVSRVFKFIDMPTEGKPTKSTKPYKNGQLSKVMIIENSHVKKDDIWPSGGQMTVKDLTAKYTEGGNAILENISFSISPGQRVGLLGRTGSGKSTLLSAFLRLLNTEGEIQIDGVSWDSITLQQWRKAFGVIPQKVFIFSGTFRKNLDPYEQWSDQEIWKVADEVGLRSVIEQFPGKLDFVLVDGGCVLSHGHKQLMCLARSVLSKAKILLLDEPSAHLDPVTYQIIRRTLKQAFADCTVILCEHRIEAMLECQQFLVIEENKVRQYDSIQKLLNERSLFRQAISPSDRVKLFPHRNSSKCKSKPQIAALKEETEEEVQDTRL

SMILES | Emax [1] [%] | EC50 (NIH 3T3 cells, F508del) [µM] | Emax (NIH3T3, read-out: 3T3 Max Activity (%)) [%]
O=S(=O)(Nc1nn(-c2ccccc2)cc1-c1cccs1)c1ccccc1 [Compound 75, N-[1-phenyl-4-(2-thienyl)pyrazol-3-yl]benzenesulfonamide] | < 30 |  | 
O=S(=O)(Nc1n[nH]cc1-c1ccccc1)c1ccccc1 [Compound 77, N-(4-phenyl-1H-pyrazol-3-yl)benzenesulfonamide] | < 30 |  | 
O=S(=O)(Nc1ccnn1CC1CC1)c1ccccc1 [Compound 78, N-[2-(cyclopropylmethyl)pyrazol-3-yl]benzenesulfonamide] | < 30 |  | 
O=S(=O)(Nc1ccnn1C1CCCCC1)c1ccccc1 [Compound 79, N-(2-cyclohexylpyrazol-3-yl)benzenesulfonamide] | < 30 |  | 
Cc1ccc(-n2nc(NS(=O)(=O)c3ccccc3)cc2C(C)(C)C)cc1 [Compound 80, N-[5-tert-butyl-1-(p-tolyl)pyrazol-3-yl]benzenesulfonamide] | 30 to 60 |  | 
CC(C)Cc1cn(-c2cccc(Cl)c2)nc1NS(=O)(=O)c1ccccc1 [Compound 81, N-[1-(3-chlorophenyl)-4-isobutyl-pyrazol-3-yl]benzenesulfonamide] | < 30 |  | 
CC(C)Cc1cn(-c2ccccc2)nc1NS(=O)(=O)c1ccccc1 [Compound 82, N-(4-isobutyl-1-phenyl-pyrazol-3-yl)benzenesulfonamide] | < 30 |  | 
O=S(=O)(Nc1nn(-c2cccc(Cl)c2)cc1C1CCCCC1)c1ccccc1 [Compound 83, N-[1-(3-chlorophenyl)-4-cyclohexyl-pyrazol-3-yl]benzenesulfonamide] | < 30 |  | 
O=S(=O)(Nc1nn(-c2ccccc2)cc1C1CCCCC1)c1ccccc1 [Compound 84, N-(4-cyclohexyl-1-phenyl-pyrazol-3-yl)benzenesulfonamide] | < 30 |  | 
CC(C)=Cc1cn(-c2cccc(Cl)c2)nc1NS(=O)(=O)c1ccccc1 [Compound 85, N-[1-(3-chlorophenyl)-4-(2-methylprop-1-enyl)pyrazol-3-yl]benzenesulfonamide] | 30 to 60 | 3 to 30 | 
C=C(C)c1cn(-c2cccc(Cl)c2)nc1NS(=O)(=O)c1ccccc1 [Compound 86, N-[1-(3-chlorophenyl)-4-isopropenyl-pyrazol-3-yl]benzenesulfonamide] | 30 to 60 | 3 to 30 | 
O=S(=O)(Nc1nn(-c2cccc(Cl)c2)cc1C1=CCCCC1)c1ccccc1 [Compound 87, N-[1-(3-chlorophenyl)-4-(cyclohexen-1-yl)pyrazol-3-yl]benzenesulfonamide] | 30 to 60 | 1 to 3 | 
O=S(=O)(Nc1nn(-c2cccc(Cl)c2)cc1-c1ccc(Cl)cc1)c1ccccc1 [Compound 88, N-[1-(3-chlorophenyl)-4-(4-chlorophenyl)pyrazol-3-yl]benzenesulfonamide] | < 30 |  | 
O=S(=O)(Nc1nn(-c2cccc(Cl)c2)cc1-c1ccccc1Cl)c1ccccc1 [Compound 89, N-[4-(2-chlorophenyl)-1-(3-chlorophenyl)pyrazol-3-yl]benzenesulfonamide] | < 30 |  | 
COc1cccc(-c2cn(-c3cccc(Cl)c3)nc2NS(=O)(=O)c2ccccc2)c1 [Compound 91, N-[1-(3-chlorophenyl)-4-(3-methoxyphenyl)pyrazol-3-yl]benzenesulfonamide] | 30 to 60 | 1 to 3 | 
COc1ccccc1-c1cn(-c2cccc(Cl)c2)nc1NS(=O)(=O)c1ccccc1 [Compound 92, N-[1-(3-chlorophenyl)-4-(2-methoxyphenyl)pyrazol-3-yl]benzenesulfonamide] | 30 to 60 | 1 to 3 | 
Cc1ccc(-c2cn(-c3cccc(Cl)c3)nc2NS(=O)(=O)c2ccccc2)cc1 [Compound 93, N-[1-(3-chlorophenyl)-4-(p-tolyl)pyrazol-3-yl]benzenesulfonamide] | < 30 |  | 
Cc1cccc(-c2cn(-c3cccc(Cl)c3)nc2NS(=O)(=O)c2ccccc2)c1 [Compound 94, N-[1-(3-chlorophenyl)-4-(m-tolyl)pyrazol-3-yl]benzenesulfonamide] | 30 to 60 | 1 to 3 | 
Cc1ccccc1-c1cn(-c2cccc(Cl)c2)nc1NS(=O)(=O)c1ccccc1 [Compound 95, N-[1-(3-chlorophenyl)-4-(o-tolyl)pyrazol-3-yl]benzenesulfonamide] | < 30 |  | 
Cc1cc(C)c(-n2cc(-c3ccccc3)c(NS(=O)(=O)c3ccccc3)n2)c(C)c1 [Compound 96, N-[4-phenyl-1-(2,4,6-trimethylphenyl)pyrazol-3-yl]benzenesulfonamide] | 30 to 60 | < 1 | 
C=C(C)c1cn(-c2c(C)cc(C)cc2C)nc1NS(=O)(=O)c1ccccc1 [Compound 97, N-[4-isopropenyl-1-(2,4,6-trimethylphenyl)pyrazol-3-yl]benzenesulfonamide] | < 30 |  | 
Cc1cc(C)c(-n2cc(C(C)C)c(NS(=O)(=O)c3ccccc3)n2)c(C)c1 [Compound 98] | < 30 |  | 
Cc1cc(C)c(-n2cc(Br)c(NS(=O)(=O)c3ccccc3)n2)c(C)c1 [Compound 99, N-[4-bromo-1-(2,4,6-trimethylphenyl)pyrazol-3-yl]benzenesulfonamide] | < 30 |  | 
Cc1ccc(-n2nc(NS(=O)(=O)c3ccccc3)cc2C)cc1 [Compound 100, N-[5-methyl-1-(p-tolyl)pyrazol-3-yl]benzenesulfonamide] | < 30 |  | 
O=S(=O)(Nc1ccn(Cc2ccccc2)n1)c1ccccc1 [Compound 102, N-(1-benzylpyrazol-3-yl)benzenesulfonamide] |  |  | < 30
O=S(=O)(Nc1nn(Cc2ccccc2)cc1C1CCCCC1)c1ccccc1 [Compound 103, N-(1-benzyl-4-cyclohexyl-pyrazol-3-yl)benzenesulfonamide] | < 30 |  | 
CCOC(=O)C1=C(c2ccccc2)N=C(NS(=O)(=O)c2ccccc2)SC1c1ccccc1 (stereo not drawn) [Compound 116, ethyl 2-(benzenesulfonamido)-4,6-diphenyl-6H-1,3-thiazine-5-carboxylate] | > 60 | < 1 | 

Further lines, with some results ahead:

Emax [1] [%] | EC50 (NIH 3T3 cells, F508del) [µM] | SMILES | Emax (NIH3T3, read-out: 3T3 Max Activity (%)) [%]
< 30 | < 1 | COc1ccc(-c2cn(-c3cccc(Cl)c3)nc2NS(=O)(=O)c2ccccc2)cc1 [Compound 90, N-[1-(3-chlorophenyl)-4-(4-methoxyphenyl)pyrazol-3-yl]benzenesulfonamide] | 
30 to 60 | 1 to 3 | Cc1ccc(-c2cn(Cc3ccccc3)nc2NS(=O)(=O)c2ccccc2)cc1 [Compound 101, N-[1-benzyl-4-(p-tolyl)pyrazol-3-yl]benzenesulfonamide] | 
< 30 |  | CC(C)=Cc1cn(Cc2ccccc2)nc1NS(=O)(=O)c1ccccc1 [Compound 104, N-[1-benzyl-4-(2-methylprop-1-enyl)pyrazol-3-yl]benzenesulfonamide] | 
< 30 |  | C=C(C)c1cn(Cc2ccccc2)nc1NS(=O)(=O)c1ccccc1 [Compound 105, N-(1-benzyl-4-isopropenyl-pyrazol-3-yl)benzenesulfonamide] | 
< 30 |  | O=S(=O)(Nc1nn(Cc2ccccc2)cc1C1=CCCCC1)c1ccccc1 [Compound 106, N-[1-benzyl-4-(cyclohexen-1-yl)pyrazol-3-yl]benzenesulfonamide] | 
< 30 |  | O=S(=O)(Nc1nn(Cc2ccccc2)cc1-c1ccccc1)c1ccccc1 [Compound 107, N-(1-benzyl-4-phenyl-pyrazol-3-yl)benzenesulfonamide] | 
30 to 60 |  | O=S(=O)(Nc1nn(Cc2ccccc2)cc1-c1ccc(Cl)cc1)c1ccccc1 [Compound 108, N-[1-benzyl-4-(4-chlorophenyl)pyrazol-3-yl]benzenesulfonamide] | 
< 30 |  | O=S(=O)(Nc1nn(Cc2ccccc2)cc1-c1cccc(Cl)c1)c1ccccc1 [Compound 109, N-[1-benzyl-4-(3-chlorophenyl)pyrazol-3-yl]benzenesulfonamide] | 
< 30 |  | O=S(=O)(Nc1nn(Cc2ccccc2)cc1-c1ccccc1Cl)c1ccccc1 [Compound 110, N-[1-benzyl-4-(2-chlorophenyl)pyrazol-3-yl]benzenesulfonamide] | 
< 30 |  | COc1ccc(-c2cn(Cc3ccccc3)nc2NS(=O)(=O)c2ccccc2)cc1 [Compound 111, N-[1-benzyl-4-(4-methoxyphenyl)pyrazol-3-yl]benzenesulfonamide] | 
< 30 |  | COc1cccc(-c2cn(Cc3ccccc3)nc2NS(=O)(=O)c2ccccc2)c1 [Compound 112] | 
< 30 |  | COc1ccccc1-c1cn(Cc2ccccc2)nc1NS(=O)(=O)c1ccccc1 [Compound 113, N-[1-benzyl-4-(2-methoxyphenyl)pyrazol-3-yl]benzenesulfonamide] | 
< 30 |  | Cc1cccc(-c2cn(Cc3ccccc3)nc2NS(=O)(=O)c2ccccc2)c1 [Compound 114, N-[1-benzyl-4-(m-tolyl)pyrazol-3-yl]benzenesulfonamide] | 
< 30 |  | Cc1ccccc1-c1cn(Cc2ccccc2)nc1NS(=O)(=O)c1ccccc1 [Compound 115] | 
